Legend:
MDA-MB-231 cells = assay: MTT assay, photodynamic therapy on MDA-MB-231 cells; type: cell-based, human
Source text: (§1) The cells in logarithmic growth phase were collected and inoculated on 24-well culture plates. When reaching 70%-80% confluence, cells were divided randomly into the following groups: control (the parallel control group without photosensitizer and irradiation), irradiation (irradiation treatment alone without photosensitizer); (photosensitizer treatment alone without irradiation), photodynamic treatment (treatment by photosensitizer in combination with irradiation). For the photosensitizer alone treatment group and photodynamic treatment group, an appropriate amount of Photohexer-1 (P-1) or Photohexer-2 (P-2) was respectively added away from light to give a final concentration of 0.8, 1.6, 3.2, 6.4 μM. Each group set 3 replicates. Cells were incubated with the active agent, different treatments were carried out according to the grouping. […] After treatment and digestion of each group of cells, it was inoculated into a 96-well plate at 100 μL/well, and four wells were set for each treatment. MTT assay was performed after 24 h from inoculation: 20 μL MTT solution was added to each well under the condition away from light, and the culture was continued for 4 hours. 150 μL DMSO was added to each well after discarding the supernatant. After 15 min of dissolution, the absorbance value (OD value) was measured using a microplate reader and the relative survival rate of cells was calculated according to the following formula: […]

4T1 transplanted tumors = assay: Tumor-inhibition effect of P1 and P2-PDT on 4T1 xenografted mice; type: in vivo, Balb/c mice; conditions: for tumor inhibition rate: day 22 after treatment
Protocol: Experimental groups: blank control (2 mice), P-1 alone treatment (4 mg/kg, 8 mice), P-2 alone treatment (2 mg/kg, 8 mice), P-1 treatment (2 mg/kg, 4 mg/kg, 8 mice/group) combined with light irradiations, P-2 treatment (1 mg/kg, 2 mg/kg, 4 mg/kg, 8 mice/group) combined with light irradiations, 66 Balb/c mice in total.

[1] = Solubility determination in water; type: physicochemical; conditions: each ml of water; room temperature; read-out: solubility in water (amount dissolved by each ml of water)
Protocol: The solubility of Photohexer-1 and Photohexer-2 in water was determined by conventional methods in the art.

7721 cells = assay: MTT assay, photodynamic therapy on 7721 cells; type: cell-based, human
Source text: as §1

[2] = Storage stability determination; type: physicochemical; conditions: 3 months of storage in dark at 2-4
Protocol: The storage stability of Photohexer-1 and Photohexer-2 was determined by conventional methods in the art.

Caco2 cells = assay: MTT assay, photodynamic therapy on Caco2 cells; type: cell-based, human
Source text: as §1

SGC7901 cells = assay: MTT assay, photodynamic therapy on SGC7901 cells; type: cell-based, human
Source text: as §1

MCF-7 cells = assay: MTT assay, photodynamic therapy on MCF-7 cells; type: cell-based, human
Source text: as §1

SW-620 cells = assay: MTT assay, photodynamic therapy on SW-620 cells; type: cell-based, human
Source text: as §1

[3] = 0.8 μM alone treatment, without irradiation
[4] = 0.8 μM combined with 2.6 J/cm^2 light irradiation
[5] = 0.8 μM combined with 5.2 J/cm^2 light irradiation
[6] = 0.8 μM combined with 10.4 J/cm^2 light irradiation
[7] = 1.6 μM alone treatment, without irradiation
[8] = 1.6 μM combined with 2.6 J/cm^2 light irradiation
[9] = 1.6 μM combined with 5.2 J/cm^2 light irradiation
[10] = 1.6 μM combined with 10.4 J/cm^2 light irradiation
[11] = 3.2 μM alone treatment, without irradiation
[12] = 3.2 μM combined with 2.6 J/cm^2 light irradiation
[13] = 3.2 μM combined with 5.2 J/cm^2 light irradiation
[14] = 3.2 μM combined with 10.4 J/cm^2 light irradiation
[15] = 6.4 μM alone treatment, without irradiation
[16] = 6.4 μM combined with 2.6 J/cm^2 light irradiation
[17] = 6.4 μM combined with 5.2 J/cm^2 light irradiation
[18] = 6.4 μM combined with 10.4 J/cm^2 light irradiation

Q: What does the source list for `C=Cc1c(C)c2cc3nc(cc4[nH]c(cc5nc(cc1[nH]2)C(C)=C5C(C)OCCCCCC)c(C)c4CCC(=O)[O-])C(CCC(=O)[O-])=C3C.[Na+].[Na+]` (stereo not drawn) [Photohexer P-2, 4-(1-hexyloxyethyl)-6,7-bis(propionatesodium)-1,3,5,8-tetramethyl-2-vinylporphyrin]?
A: sensitivity compared between P-1 and P-2 (MDA-MB-231 cells): more sensitive than P-1; Cell survival rate (MDA-MB-231 cells; [3]): 100.17 ± 4.03%; Cell survival rate (MDA-MB-231 cells; [4]): 87.82 ± 4.09%; Cell survival rate (MDA-MB-231 cells; [5]): 71.8 ± 4.16%; Cell survival rate (MDA-MB-231 cells; [6]): 52.23 ± 4.16%; Cell survival rate (MDA-MB-231 cells; [7]): 97.69 ± 3.63%; Cell survival rate (MDA-MB-231 cells; [8]): 73.80 ± 3.22%; Cell survival rate (MDA-MB-231 cells; [9]): 49.35 ± 3.46%; Cell survival rate (MDA-MB-231 cells; [10]): 45.69 ± 3.16%; Cell survival rate (MDA-MB-231 cells; [11]): 91.44 ± 2.57%; Cell survival rate (MDA-MB-231 cells; [12]): 59.92 ± 2.94%; Cell survival rate (MDA-MB-231 cells; [13]): 46.57 ± 2.43%; Cell survival rate (MDA-MB-231 cells; [14]): 40.31 ± 2.28%; Cell survival rate (MDA-MB-231 cells; [15]): 81.55 ± 1.21%; Cell survival rate (MDA-MB-231 cells; [16]): 49.18 ± 1.33%; Cell survival rate (MDA-MB-231 cells; [17]): 40.03 ± 1.12%; Cell survival rate (MDA-MB-231 cells; [18]): 31.15 ± 0.96%; toxic effects of photosensitizer alone (4T1 transplanted tumors; 2 mg/kg alone, without irradiation, 4T1 tumor-bearing mice): did not show significant toxic effects; tumor inhibition rate (4T1 transplanted tumors; 2 mg/kg combined with light irradiation (50 J/cm^2), 4T1 tumor-bearing mice): 23.35%; tumor inhibition rate (4T1 transplanted tumors; 4 mg/kg combined with light irradiation (50 J/cm^2), 4T1 tumor-bearing mice): 44.68%; photosensitizer activity on growth of 4T1 transplanted tumors (4T1 transplanted tumors; combined with 50 J/cm^2 irradiation): obvious dose-dependent activity; volume of tumor relative to control group (4T1 transplanted tumors; combined with 50 J/cm^2 irradiation, 8th to 22nd days after treatment): about half the size of tumors of control group; solubility [1]: ~10000 µg/mL; Cell survival rate (7721 cells; [3]): 102.15 ± 4.07%; Cell survival rate (7721 cells; [4]): 98.29 ± 4.01%; Cell survival rate (7721 cells; [5]): 96.77 ± 3.76%; Cell survival rate (7721 cells; [6]): 95.91 ± 3.95%; Cell survival rate (7721 cells; [7]): 101.37 ± 3.36%; Cell survival rate (7721 cells; [8]): 94.78 ± 3.88%; Cell survival rate (7721 cells; [9]): 92.15 ± 3.64%; Cell survival rate (7721 cells; [10]): 91.44 ± 3.73%; Cell survival rate (7721 cells; [11]): 100.64 ± 2.98%; Cell survival rate (7721 cells; [12]): 92.15 ± 3.76%; Cell survival rate (7721 cells; [13]): 89.23 ± 3.35%; Cell survival rate (7721 cells; [14]): 78.32 ± 3.19%; Cell survival rate (7721 cells; [15]): 98.14 ± 2.53%; Cell survival rate (7721 cells; [16]): 88.02 ± 3.59%; Cell survival rate (7721 cells; [17]): 82.25 ± 2.79%; Cell survival rate (7721 cells; [18]): 71.15 ± 2.91%; toxicity alone (7721 cells; alone, without irradiation): no significant toxicity; cell toxicity with light (7721 cells; combination with a certain amount of light): stronger cell toxicity; storage stability (content change by HPLC test) [2]: no content change; Cell survival rate (Caco2 cells; [3]): 99.09 ± 4.27%; Cell survival rate (Caco2 cells; [4]): 98.47 ± 3.69%; Cell survival rate (Caco2 cells; [5]): 98.57 ± 4.26%; Cell survival rate (Caco2 cells; [6]): 73.07 ± 3.86%; Cell survival rate (Caco2 cells; [7]): 98.50 ± 3.63%; Cell survival rate (Caco2 cells; [8]): 88.31 ± 2.67%; Cell survival rate (Caco2 cells; [9]): 77.26 ± 3.66%; Cell survival rate (Caco2 cells; [10]): 58.33 ± 2.60%; Cell survival rate (Caco2 cells; [11]): 94.12 ± 2.54%; Cell survival rate (Caco2 cells; [12]): 75.55 ± 2.01%; Cell survival rate (Caco2 cells; [13]): 63.08 ± 2.35%; Cell survival rate (Caco2 cells; [14]): 47.94 ± 2.31%; Cell survival rate (Caco2 cells; [15]): 88.45 ± 1.44%; Cell survival rate (Caco2 cells; [16]): 64.87 ± 1.13%; Cell survival rate (Caco2 cells; [17]): 43.88 ± 1.14%; Cell survival rate (Caco2 cells; [18]): 37.06 ± 1.54%; killing effect of photodynamic therapy (Caco2 cells; dependent on concentration and light intensity): good killing effect; photodynamic activity compared between P-1 and P-2 (SGC7901 cells): better than P-1; Cell survival rate (SGC7901 cells; [3]): 100.80 ± 0.91%; Cell survival rate (SGC7901 cells; [4]): 83.27 ± 0.82%; Cell survival rate (SGC7901 cells; [5]): 76.47 ± 1.65%; Cell survival rate (SGC7901 cells; [6]): 66.13 ± 0.60%; Cell survival rate (SGC7901 cells; [7]): 97.25 ± 1.34%; Cell survival rate (SGC7901 cells; [8]): 70.77 ± 7.19%; Cell survival rate (SGC7901 cells; [9]): 60.00 ± 9.82%; Cell survival rate (SGC7901 cells; [10]): 49.32 ± 12.57%; Cell survival rate (SGC7901 cells; [11]): 82.72 ± 0.54%; Cell survival rate (SGC7901 cells; [12]): 52.91 ± 1.96%; Cell survival rate (SGC7901 cells; [13]): 41.72 ± 0.35%; Cell survival rate (SGC7901 cells; [14]): 34.58 ± 0.66%; killing effect of photodynamic therapy (SGC7901 cells; drug-dose and light-intensity dependent): obvious killing effect; Cell survival rate (MCF-7 cells; [3]): 98.46 ± 4.62%; Cell survival rate (MCF-7 cells; [4]): 89.08 ± 3.99%; Cell survival rate (MCF-7 cells; [5]): 76.83 ± 4.26%; Cell survival rate (MCF-7 cells; [6]): 72.40 ± 4.14%; Cell survival rate (MCF-7 cells; [7]): 84.93 ± 3.16%; Cell survival rate (MCF-7 cells; [8]): 65.11 ± 2.73%; Cell survival rate (MCF-7 cells; [9]): 48.15 ± 3.12%; Cell survival rate (MCF-7 cells; [10]): 41.81 ± 3.77%; Cell survival rate (MCF-7 cells; [11]): 82.94 ± 2.28%; Cell survival rate (MCF-7 cells; [12]): 51.79 ± 2.10%; Cell survival rate (MCF-7 cells; [13]): 44.80 ± 2.22%; Cell survival rate (MCF-7 cells; [14]): 34.81 ± 2.43%; Cell survival rate (MCF-7 cells; [15]): 80.23 ± 1.03%; Cell survival rate (MCF-7 cells; [16]): 40.31 ± 1.02%; Cell survival rate (MCF-7 cells; [17]): 35.46 ± 1.02%; Cell survival rate (MCF-7 cells; [18]): 26.14 ± 1.07%; Cell survival rate (SW-620 cells; [3]): 101.79 ± 4.27%; Cell survival rate (SW-620 cells; [4]): 97.58 ± 3.86%; Cell survival rate (SW-620 cells; [5]): 96.11 ± 4.06%; Cell survival rate (SW-620 cells; [6]): 92.99 ± 3.86%; Cell survival rate (SW-620 cells; [7]): 96.58 ± 3.66%; Cell survival rate (SW-620 cells; [8]): 94.77 ± 2.99%; Cell survival rate (SW-620 cells; [9]): 90.19 ± 3.18%; Cell survival rate (SW-620 cells; [10]): 84.95 ± 3.02%; Cell survival rate (SW-620 cells; [11]): 93.16 ± 2.71%; Cell survival rate (SW-620 cells; [12]): 89.07 ± 2.34%; Cell survival rate (SW-620 cells; [13]): 82.00 ± 2.62%; Cell survival rate (SW-620 cells; [14]): 68.54 ± 2.77%; Cell survival rate (SW-620 cells; [15]): 85.21 ± 1.03%; Cell survival rate (SW-620 cells; [16]): 66.83 ± 1.12%; Cell survival rate (SW-620 cells; [17]): 58.46 ± 1.23%; Cell survival rate (SW-620 cells; [18]): 47.12 ± 1.04%

Reference: US20170252442A1, “PHOTOHEXER COMPOUNDS AND PHARMACEUTICAL COMPOSITION AND USE THEREOF” (RAINBOW PHARMATECH LLC, priority 2014, published 2017)
